Measured values taken from BindingDB's records for doi:10.1016/s0960-894x(02)00371-2 (Neurocrine Biosciences, 2002).

Target: Gonadotropin-releasing hormone receptor (Rattus norvegicus) (UniProt P30969)
Assay: Compound was evaluated in cloned rat Gonadotropin-releasing hormone receptor assay for its ability to displace the binding of [125 I-Tyr, DLeu, NMeLeu, Pro-NEt]GnRH agonist

Gonadotropin-releasing hormone receptor (Rattus norvegicus), sequence (P30969 whole entry, looked up): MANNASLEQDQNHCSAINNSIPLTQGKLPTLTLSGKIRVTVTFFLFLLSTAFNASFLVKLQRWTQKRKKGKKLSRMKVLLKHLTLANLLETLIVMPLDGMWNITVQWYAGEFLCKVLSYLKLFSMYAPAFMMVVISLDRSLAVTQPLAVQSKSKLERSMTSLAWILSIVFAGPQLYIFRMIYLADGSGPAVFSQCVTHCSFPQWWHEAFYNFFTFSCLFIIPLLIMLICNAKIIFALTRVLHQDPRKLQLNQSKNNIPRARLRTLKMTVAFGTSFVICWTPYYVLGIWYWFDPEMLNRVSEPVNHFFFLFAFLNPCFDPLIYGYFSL

COc1ccc(-c2nc3n(Cc4ccccc4F)c(C)c(-c4ccc5c(c4)OCO5)c(=O)n3c2CN(C)CCc2ccccn2)cc1 [6-Benzo[1,3]dioxol-5-yl-8-(2-fluoro-benzyl)-2-(4-methoxy-phenyl)-7-methyl-3-{[methyl-(2-pyridin-2-yl-ethyl)-amino]-methyl}-8H-imidazo[1,2-a]pyrimidin-5-one]
Ki: 12 µM
